Patent US20220016215A1, “GIP RECEPTOR AGONIST PEPTIDE COMPOUNDS AND USES THEREOF” (TAKEDA PHAARMACEUTICAL COMPANY LIMITED, priority 2018, published 2022)
Marks after values point to notes of the source that are not given here.

Tested on: morphine (0.6 mg/kg, s.c.)-induced emesis in ferrets
Test: Morphine-induced acute emetic model in male ferrets
Format: in vivo, ferret
Settings: for Emesis: Duration / Emesis: Frequency / Emesis: No. of animals (responder/used) / Fidget: Duration / Fidget: Frequency / Fidget: No. of animals (responder/used) / Licking: Duration / Licking: Frequency / Licking: No. of animals (responder/used) / Retching: Duration / Retching: Frequency / Retching: No. of animals (responder/used) / Vomiting: Duration / Vomiting: Frequency / Vomiting: No. of animals (responder/used) / Emesis: Latency / Fidget: Latency / Licking: Latency / Retching: Latency / Vomiting: Latency: ferrets, morphine 0.6 mg/kg s.c. 0.5 h after drug, 106-[…] s.c. (30 nmol/kg); for Emesis: Latency / Fidget: Latency / Licking: Latency / Retching: Latency / Vomiting: Latency: non-responders counted as 30 min; for Attenuation of morphine-induced emesis (in words) / Comment: Anti-Emetic Activity (inhibition) on morphine-induced emesis: male ferrets; for Attenuation of morphine-induced emesis (in words): 30 nmol/kg s.c. 30 minutes before morphine 0.6 mg/kg s.c.; for Comment: Anti-Emetic Activity (inhibition) on morphine-induced emesis: summary of the morphine experiments
Experimental: Example 6—In-Vivo Effect of GIP Receptor Agonist Peptides on Emesis in Morphine Induced Emesis Model in Live Male Ferrets
Effect of subcutaneously administered GIP receptor agonist peptide in morphine-induced acute emetic model.
To evaluate the antiemetic effect, the GIP receptor agonist peptides other than natural human GIP were subcutaneously administered into male ferrets 30 minutes before morphine administration. […]. Up to 60 minutes after morphine administration, the condition of the ferrets was monitored to record the frequencies and time points of abdominal contraction motions, vomiting behaviors, licking with the tongue, and fidgety behavior occurring
Effects of Subcutaneously Administered GIP Receptor Agonist Peptides in Morphine-Induced Acute Emetic Model
30 nmol/kg of Compounds 3 and 5 were dissolved with a vehicle (0.09 w/v % tween 80/10% DMSO/saline), respectively, to prepare test solutions. […] of the test solutions and the vehicle were subcutaneously administered to ferrets (4 in each group), respectively. At the time of each of 4 hours, after administration, 0.6 mg/kg of morphine was subcutaneously administered. […] See results in Tables 6, 7 and 8.
(§1) 10 nmol/kg of each compound dissolved with a vehicle (0.09 w/v % tween 80/10% DMSO/saline) respectively, to prepare test solutions. […] of the test solutions and the vehicle were subcutaneously administered to ferrets (4 in each group), respectively. At the time of each of 4 hours, or 120 hours after administration, 0.6 mg/kg of morphine was subcutaneously administered. Up to 360 minutes after morphine administration, the condition of the ferrets was monitored to record the frequencies and time points of abdominal contraction motions, vomiting behaviors, licking with the tongue, and fidgety behavior occurring.
as §1, with “30 nmol/kg” for “10 nmol/kg”, “80/10% DMSO/saline),respectively,” for “80/10% DMSO/saline) respectively,”

CC[C@H](C)[C@H](NC(=O)[C@H](CO)NC(=O)[C@H](Cc1ccc(O)cc1)NC(=O)[C@H](CC(=O)O)NC(=O)[C@H](CO)NC(=O)[C@@H](NC(=O)[C@H](Cc1ccccc1)NC(=O)[C@@H](NC(=O)CNC(=O)[C@H](CCC(=O)O)NC(=O)[C@@H](C)NC(=O)[C@@H](N)Cc1ccc(O)cc1)[C@@H](C)O)[C@@H](C)CC)C(=O)N[C@@H](C)C(=O)N[C@@H](CCSC)C(=O)N[C@@H](CC(=O)O)C(=O)N[C@@H](CCCCN)C(=O)N[C@H](C(=O)N[C@@H](Cc1c[nH]cn1)C(=O)N[C@@H](CCC(N)=O)C(=O)N[C@@H](CCC(N)=O)C(=O)N[C@@H](CC(=O)O)C(=O)N[C@@H](Cc1ccccc1)C(=O)N[C@H](C(=O)N[C@@H](CC(N)=O)C(=O)N[C@@H](Cc1c[nH]c2ccccc12)C(=O)N[C@@H](CC(C)C)C(=O)N[C@@H](CC(C)C)C(=O)N[C@@H](C)C(=O)N[C@@H](CCC(N)=O)C(=O)N[C@@H](CCCCN)C(=O)O)C(C)C)[C@@H](C)CC [Compound 4]
Emesis: Duration: 0.0 ± 0.0 min
Emesis: Frequency: 0.0 ± 0.0
Emesis: No. of animals (responder/used): 0/4 #
Fidget: Duration: 0.0 ± 0.0 min
Fidget: Frequency: 0.0 ± 0.0
Fidget: No. of animals (responder/used): 0/4
Licking: Duration: 0.0 ± 0.0 min
Licking: Frequency: 0.0 ± 0.0
Licking: No. of animals (responder/used): 0/4 #
Retching: Duration: 0.0 ± 0.0 min
Retching: Frequency: 0.0 ± 0.0
Retching: No. of animals (responder/used): 0/4 #
Vomiting: Duration: 0.0 ± 0.0 min
Vomiting: Frequency: 0.0 ± 0.0
Vomiting: No. of animals (responder/used): 0/4
Emesis: Latency: 30.0 ± 0.0 min
Fidget: Latency: 30.0 ± 0.0 min
Licking: Latency: 30.0 ± 0.0 min
Retching: Latency: 30.0 ± 0.0 min
Vomiting: Latency: 30.0 ± 0.0 min
Attenuation of morphine-induced emesis (in words): completely attenuated
Comment: Anti-Emetic Activity (inhibition) on morphine-induced emesis: 100% inhibition

CC[C@H](C)[C@H](NC(=O)[C@H](CO)NC(=O)[C@H](Cc1ccc(O)cc1)NC(=O)[C@H](CC(=O)O)NC(=O)[C@H](CO)NC(=O)[C@@H](NC(=O)[C@H](Cc1ccccc1)NC(=O)[C@@H](NC(=O)CNC(=O)[C@H](CCC(=O)O)NC(=O)[C@@H](C)NC(=O)[C@@H](N)Cc1ccc(O)cc1)[C@@H](C)O)[C@@H](C)CC)C(=O)N[C@@H](C)C(=O)N[C@@H](CCSC)C(=O)N[C@@H](CC(=O)O)C(=O)N[C@@H](CCCCN)C(=O)N[C@H](C(=O)N[C@@H](Cc1c[nH]cn1)C(=O)N[C@@H](CCC(N)=O)C(=O)N[C@@H](CCC(N)=O)C(=O)N[C@@H](CC(=O)O)C(=O)N[C@@H](Cc1ccccc1)C(=O)N[C@H](C(=O)N[C@@H](CC(N)=O)C(=O)N[C@@H](Cc1c[nH]c2ccccc12)C(=O)N[C@@H](CC(C)C)C(=O)N[C@@H](CC(C)C)C(=O)N[C@@H](C)C(=O)N[C@@H](CCC(N)=O)C(=O)N[C@@H](CCCCN)C(=O)N1CCC[C@H]1C(=O)N[C@@H](CO)C(=O)N[C@@H](CO)C(=O)NCC(=O)N[C@@H](C)C(=O)N1CCC[C@H]1C(=O)N1CCC[C@H]1C(=O)N1CCC[C@H]1C(=O)N[C@@H](CO)C(N)=O)C(C)C)[C@@H](C)CC [Compound 11]
Emesis: Duration: 0.0 ± 0.0 min
Emesis: Frequency: 0.0 ± 0.0
Emesis: No. of animals (responder/used): 0/4 #
Fidget: Duration: 0.0 ± 0.0 min
Fidget: Frequency: 0.0 ± 0.0
Fidget: No. of animals (responder/used): 0/4
Licking: Duration: 0.0 ± 0.0 min
Licking: Frequency: 0.0 ± 0.0
Licking: No. of animals (responder/used): 0/4 #
Retching: Duration: 0.0 ± 0.0 min
Retching: Frequency: 0.0 ± 0.0
Retching: No. of animals (responder/used): 0/4 #
Vomiting: Duration: 0.0 ± 0.0 min
Vomiting: Frequency: 0.0 ± 0.0
Vomiting: No. of animals (responder/used): 0/4
Emesis: Latency: 30.0 ± 0.0 min
Fidget: Latency: 30.0 ± 0.0 min
Licking: Latency: 30.0 ± 0.0 min
Retching: Latency: 30.0 ± 0.0 min
Vomiting: Latency: 30.0 ± 0.0 min
Attenuation of morphine-induced emesis (in words): completely attenuated
Comment: Anti-Emetic Activity (inhibition) on morphine-induced emesis: 100% inhibition
